The results in this text go back to patent US8426409B2, “Inhibitors of Bruton's tyrosine kinase” (Roche Palo Alto LLC, priority 2008, dated 2013).

Each structure is given as a SMILES string.

The test concerns the target T1, Btk enzyme (His-tagged, full-length) (Homo sapiens, UniProt Q06187).
T1 construct: 5-10 nM Btk enzyme (His-tagged, full-length); His
The test can be described thus: Bruton's Tyrosine Kinase (Btk) Inhibition Assay (33P filtration capture). In kind it is biochemical. The conditions noted are these: 100 μM ATP, 30 μM biotinylated peptide substrate, 30 min at 30° C. From the text: The assay is a capture of radioactive ^33P phosphorylated product through filtration. The interactions of Btk, biotinylated SH2 peptide substrate (Src homology), and ATP lead to phosphorylation of the peptide substrate. Biotinylated product is bound streptavidin sepharose beads. All bound, radiolabeled products are detected by scintillation counter.
Plates assayed are 96-well polypropylene (Greiner) and 96-well 1.2 μm hydrophilic PVDF filter plates (Millipore). Concentrations reported here are final assay concentrations: 10-100 μM compounds in DMSO (Burdick and Jackson), 5-10 nM Btk enzyme (His-tagged, full-length), 30 μM peptide substrate (Biotin-Aca-AAAEEIYGEI-NH2), 100 μM ATP (Sigma), 8 mM imidazole (Sigma, pH 7.2), 8 mM glycerol-2-phosphate (Sigma), 200 μM EGTA (Roche Diagnostics), 1 mM MnCl2 (Sigma), 20 mM MgCl2 (Sigma), 0.1 mg/ml BSA (Sigma), 2 mM DTT (Sigma), 1 μCi ^33P ATP (Amersham), 20% streptavidin sepharose beads (Amersham), 50 mM EDTA (Gibco), 2 M NaCl (Gibco), 2 M NaCl w/1% phosphoric acid (Gibco), microscint-20 (Perkin Elmer).
IC50 determinations are calculated from 10 data points per compound utilizing data produced from a standard 96-well plate assay template. […] Background was counted in the absence of peptide substrate. Total activity was determined in the presence of peptide substrate. […]

T1 sequence (Q06187 whole entry): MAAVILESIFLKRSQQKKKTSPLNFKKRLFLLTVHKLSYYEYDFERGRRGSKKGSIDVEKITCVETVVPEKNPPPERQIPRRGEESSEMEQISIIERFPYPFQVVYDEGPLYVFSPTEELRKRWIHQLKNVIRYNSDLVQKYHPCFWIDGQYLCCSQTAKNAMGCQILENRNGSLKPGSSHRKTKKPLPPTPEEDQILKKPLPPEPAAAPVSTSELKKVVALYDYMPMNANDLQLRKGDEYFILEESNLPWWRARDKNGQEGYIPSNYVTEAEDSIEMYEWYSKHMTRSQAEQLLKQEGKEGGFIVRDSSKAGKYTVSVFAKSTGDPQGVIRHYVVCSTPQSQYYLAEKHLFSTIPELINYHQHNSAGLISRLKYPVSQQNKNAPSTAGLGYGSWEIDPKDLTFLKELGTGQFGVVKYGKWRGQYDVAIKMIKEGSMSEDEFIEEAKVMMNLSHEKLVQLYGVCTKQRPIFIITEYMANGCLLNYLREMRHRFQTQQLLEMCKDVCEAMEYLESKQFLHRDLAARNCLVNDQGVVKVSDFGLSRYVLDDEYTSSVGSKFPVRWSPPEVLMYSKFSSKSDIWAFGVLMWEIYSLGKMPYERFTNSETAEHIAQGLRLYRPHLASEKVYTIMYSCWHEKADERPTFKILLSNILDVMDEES

`O=C1c2ccc(C3CC3)cc2CCN1c1cccc(-c2cn3ccnc3c(Nc3ccc(CN4CCOCC4)cc3)n2)c1CO` [II-2, 6-Cyclopropyl-2-{2-hydroxymethyl-3-[8-(4-morpholin-4-ylmethyl-phenylamino)-imidazo[1,2-a]pyrazin-6-yl]-phenyl}-3,4-dihydro-2H-isoquinolin-1-one]: the IC50 (usually the point on the concentration scale where inhibition reaches its midpoint) was 37 nM.
For `O=C(c1ccc(Nc2nc(-c3cccc(N4CCc5cc(C6CC6)ccc5C4=O)c3CO)cn3ccnc23)cc1)N1CCOCC1` [II-1, 6-Cyclopropyl-2-(2-hydroxymethyl-3-{8-[4-(morpholine-4-carbonyl)-phenylamino]-imidazo[1,2-a]pyrazin-6-yl}-phenyl)-3,4-dihydro-2H-isoquinolin-1-one] the value was 25 nM.
